Data reported in patent US20050101595A1, “N-containing cycloalkyl-substituted amino-thiazole derivatives and pharmaceutical compositions for inhibiting cell proliferation and methods for their use” (PFIZER INC., priority 2003, published 2005).
Where a name gives a salt, the structure may show the parent alone. Read-outs that look alike come from different tables or passages of the source.

Columns and labels:
CDK2/Cyclin A = CDK2/Cyclin A (Homo sapiens, UniProt P24941); experiment: Inhibition of CDK2/Cyclin A Retinoblastoma Kinase Activity; assay type: biochemical; settings: for Ki: apparent Ki, CDK2/proteolyzed cyclin A, Rb fragment substrate, 25 μM ATP; for CDK2 % Inhibition At 0.03 μM / CDK2 % Inhibition at 0.03 μM: 0.03 μM compound; for CDK2 % Inhibition At 0.03 μM: Table 2; for CDK2 % Inhibition at 0.03 μM: Table 3
Summary of the method: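 Percent inhibition is calculated against DMSO-only wells after subtracting no-enzyme background. The enzyme is human CDK2 complexed with proteolyzed cyclin A, used at 10 nM or 19 nM on an Rb fragment with 25 μM [32/33P]ATP, at pH 7.4 and 30° C.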

[1] = biological target: human CDK4 and genetically truncated (1-264) cyclin D3 (Homo sapiens, UniProt P11802); experiment: Inhibition of CDK4/Cyclin D Retinoblastoma Kinase Activity; assay type: biochemical; settings: for Ki: apparent Ki, CDK4/truncated cyclin D3, Rb fragment substrate, 25 μM ATP; for CDK4 % Inhibition at 0.03 μM: 0.03 μM compound
Summary of the method: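 Apparent Ki values derive from fitting activity at varied inhibitor concentrations to a competitive (or competitive tight-binding) model. Kinase reactions used 5 nM CDK4/cyclin D3(1-264), Rb fragment substrate and 25 μM ATP. Incubation ran 20 min at 30 °C, extended to 60 min under linear conditions for tight binders.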

HCT-116 cell line = experiment: Inhibition of cell growth, tetrazolium salt (MTT) assay; assay type: cell-based; settings: for IC50: Homo sapiens, HCT-116, 120 h, MTT, three to five days, read-out: HCT-116 IC50; for HCT-116 % Inhibition at 0.25 μM: 0.25 μM compound; for HCT-116 % Inhibition at 0.1 μM: 0.1 μM compound
Summary of the method: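 McCoy's 5A cultures; 4 h pre-incubation; compound dilutions in 0.5% v/v DMSO; 3–5 d, 37° C, 5% CO2; MTT 0.2 mg/mL final, 4 h; formazan dissolved in DMSO, A540; vs 0.5% DMSO vehicle.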

human CDK4 and genetically truncated (1-264) cyclin D3, sequence (P11802 whole entry, the tested form may be a part): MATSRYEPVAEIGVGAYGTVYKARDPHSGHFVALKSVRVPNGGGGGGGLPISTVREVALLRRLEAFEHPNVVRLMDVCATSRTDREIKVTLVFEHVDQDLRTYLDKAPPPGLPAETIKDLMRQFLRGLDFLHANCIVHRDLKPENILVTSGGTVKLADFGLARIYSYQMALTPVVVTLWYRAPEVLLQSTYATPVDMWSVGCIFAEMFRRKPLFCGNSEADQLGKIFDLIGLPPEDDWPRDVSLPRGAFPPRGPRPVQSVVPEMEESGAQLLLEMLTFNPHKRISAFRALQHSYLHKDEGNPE
human CDK4 and genetically truncated (1-264) cyclin D3, sequence (P30281 1-264 partner): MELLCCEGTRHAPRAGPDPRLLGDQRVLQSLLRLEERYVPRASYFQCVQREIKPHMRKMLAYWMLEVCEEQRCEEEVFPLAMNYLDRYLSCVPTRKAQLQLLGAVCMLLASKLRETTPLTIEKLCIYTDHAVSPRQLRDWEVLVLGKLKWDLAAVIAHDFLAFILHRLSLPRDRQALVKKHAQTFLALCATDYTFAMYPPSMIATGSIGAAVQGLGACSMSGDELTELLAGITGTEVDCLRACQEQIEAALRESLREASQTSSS

SMILES	Ki (CDK2/Cyclin A) [nM]	Ki [1] [nM]	IC50 (HCT-116 cell line; first HCT-116 column (c4)) [nM]	IC50 (HCT-116 cell line; second HCT-116 column (c5)) [nM]	CDK2 % Inhibition At 0.03 μM (CDK2/Cyclin A) [%]	CDK4 % Inhibition at 0.03 μM ([1]; Table 2) [%]	HCT-116 % Inhibition at 0.25 μM (HCT-116 cell line; Table 2) [%]	also measured
Nc1nc(NC2CCN(S(=O)(=O)c3ccc(-c4ccncc4)nc3)CC2)sc1C(=O)c1c(F)cccc1F [Example I7, 1-{4-Amino-2-[1-([2,4′]bipyridinyl-5-sulfonyl)-piperidinin-4-ylamino]-thiazol-5-yl}-1-(2,6-difluoro-phenyl)-methanone]	< 1	0.38	1300	5000				
CCOC(=O)CC[C@H](NC(=O)N1CCC(Nc2nc(N)c(C(=O)c3c(F)cccc3F)s2)CC1)C(=O)OCC [Example O80]					23	15	46	
Cc1c[nH]c(-c2ccc(S(=O)(=O)N3CCC(Nc4nc(N)c(C(=O)c5c(F)cccc5F)s4)CC3)cn2)n1 [Example I2, 1-(4-Amino-2-{1-[6-(4-methyl-1H-imidazol-2-yl)-pyridine-3-sulfonyl]-piperidin-4-ylamino}-thiazol-5-yl)-1-(2,6-difluoro-phenyl)-methanone Hydrochloride]	0.41	0.72	240	1400				
Cc1cc(C)c(NC(=O)N2CCC(Nc3nc(N)c(C(=O)c4c(F)cccc4F)s3)CC2)c(C)c1 [Example O55]					28	10	41	
Nc1nc(NC2CCN(S(=O)(=O)c3cccc([N+](=O)[O-])c3)CC2)sc1C(=O)c1c(F)cccc1F [Example P11]								CDK2 % Inhibition at 0.03 μM (CDK2/Cyclin A): −23%; CDK4 % Inhibition at 0.03 μM ([1]; Table 3): 22%; HCT-116 % Inhibition at 0.1 μM (HCT-116 cell line; Table 3): 19%; HCT-116 % Inhibition at 0.25 μM (HCT-116 cell line; Table 3): 27%
CCN(CC)CCOc1ccc(S(=O)(=O)N2CCC(Nc3nc(N)c(C(=O)c4c(F)cccc4F)s3)CC2)cn1 [Example H18, (4-Amino-2-{1-[6-(2-diethylamino-ethoxy)-pyridine-3-sulfonyl]-piperidin-4-ylamino}-thiazol-5-yl)-(2,6-difluoro-phenyl)-methanone Trifluoroacetic Acid Salt]	1.6	0.3	55	> 500				
Nc1nc(NC2CCN(S(=O)(=O)c3cc(Cl)sc3Cl)CC2)sc1C(=O)c1c(F)cccc1F [Example P35]								CDK2 % Inhibition at 0.03 μM (CDK2/Cyclin A): 37%; CDK4 % Inhibition at 0.03 μM ([1]; Table 3): 47%; HCT-116 % Inhibition at 0.1 μM (HCT-116 cell line; Table 3): 1%; HCT-116 % Inhibition at 0.25 μM (HCT-116 cell line; Table 3): 22%
Nc1nc(NC2CCN(S(=O)(=O)c3ccc(CN4CCCC4)cc3)CC2)sc1C(=O)c1c(F)cccc1F [Example J6, 1-{4-Amino-2-[1-(4-pyrrolidin-1-ylmethyl-benzenesulfonyl)-piperidin-4-ylamino]-thiazol-5-yl}-1-(2,6-difluoro-phenyl)-methanone Hydrochloride]	< 1	0.58	390	2000				
Nc1nc(NC2CCN(C(=O)Nc3cccc(Cl)c3)CC2)sc1C(=O)c1c(F)cccc1F [Example O14]					36	9	23	
Cc1noc(C)c1S(=O)(=O)N1CCC(Nc2nc(N)c(C(=O)c3c(F)cccc3F)s2)CC1 [Example P51]								CDK2 % Inhibition at 0.03 μM (CDK2/Cyclin A): 3%; CDK4 % Inhibition at 0.03 μM ([1]; Table 3): 27%; HCT-116 % Inhibition at 0.1 μM (HCT-116 cell line; Table 3): 18%; HCT-116 % Inhibition at 0.25 μM (HCT-116 cell line; Table 3): 21%
COc1cc(NC(=O)N2CCC(Nc3nc(N)c(C(=O)c4c(F)cccc4F)s3)CC2)cc(OC)c1 [Example O45]					35	17	32	
Nc1nc(NC2CCN(C(=O)Nc3ccc(Cl)cc3)CC2)sc1C(=O)c1c(F)cccc1F [Example O20]					26	7	15	
Nc1nc(NC2CCN(S(=O)(=O)c3ccc(CCN4CCC(O)C4)nc3)CC2)sc1C(=O)c1c(F)cccc1F (centres unmarked) [Example N7, [4-Amino-2-(1-{6-[2-(3-hydroxy-pyrrolidin-1-yl)-ethyl]-pyridine-3-sulfonyl}-piperidin-4-ylamino)-thiazol-5-yl]-(2,6-difluoro-phenyl)-methanone Hydrochloride Salt.]	0.93	0.35	890	4000				
